Source: patent publication US20240254119A1 (THIRD HARMONIC BIO, INC., priority 2022, published 2024)

Key:
Kinetic solubility assay = type: physicochemical; settings: kinetic solubility, 50 mM PB (pH 7.4), shaken 24 hours at RT
Description: 10 μL of 10 mM in DMSO of test article and control compounds was added into lower chambers of whatman miniuniprep vials, respectively. 490 μL of 50 mM PB (pH 7.4) was then added into lower chambers of the whatman miniuniprep vials, respectively. […] Miniuniprep vials were shaken for 24 hours at RT at the speed of 800 rpm, centrifuged 20 minutes (eg. 4000 rpm) and the filtrates were analyzed by UPLC-UV/HPLC-UV system to calculate the concentration with standard curve.
Filter Membrane: Miniuniprep (PTFE Filter Media with Polypropylene Housing) Cat. No. UN203NPUORG, GE Halthcare Whatman.

wtKIT [1] = biological target: T1, wtKIT (Homo sapiens, UniProt P10721); experiment: Caliper biochemical assay, wtKIT; settings: Table 6, read-out: KIT Biochemical IC50 avg
T1 construct: 1888289AM in the reaction mixtures
T1 sequence (P10721 26-976): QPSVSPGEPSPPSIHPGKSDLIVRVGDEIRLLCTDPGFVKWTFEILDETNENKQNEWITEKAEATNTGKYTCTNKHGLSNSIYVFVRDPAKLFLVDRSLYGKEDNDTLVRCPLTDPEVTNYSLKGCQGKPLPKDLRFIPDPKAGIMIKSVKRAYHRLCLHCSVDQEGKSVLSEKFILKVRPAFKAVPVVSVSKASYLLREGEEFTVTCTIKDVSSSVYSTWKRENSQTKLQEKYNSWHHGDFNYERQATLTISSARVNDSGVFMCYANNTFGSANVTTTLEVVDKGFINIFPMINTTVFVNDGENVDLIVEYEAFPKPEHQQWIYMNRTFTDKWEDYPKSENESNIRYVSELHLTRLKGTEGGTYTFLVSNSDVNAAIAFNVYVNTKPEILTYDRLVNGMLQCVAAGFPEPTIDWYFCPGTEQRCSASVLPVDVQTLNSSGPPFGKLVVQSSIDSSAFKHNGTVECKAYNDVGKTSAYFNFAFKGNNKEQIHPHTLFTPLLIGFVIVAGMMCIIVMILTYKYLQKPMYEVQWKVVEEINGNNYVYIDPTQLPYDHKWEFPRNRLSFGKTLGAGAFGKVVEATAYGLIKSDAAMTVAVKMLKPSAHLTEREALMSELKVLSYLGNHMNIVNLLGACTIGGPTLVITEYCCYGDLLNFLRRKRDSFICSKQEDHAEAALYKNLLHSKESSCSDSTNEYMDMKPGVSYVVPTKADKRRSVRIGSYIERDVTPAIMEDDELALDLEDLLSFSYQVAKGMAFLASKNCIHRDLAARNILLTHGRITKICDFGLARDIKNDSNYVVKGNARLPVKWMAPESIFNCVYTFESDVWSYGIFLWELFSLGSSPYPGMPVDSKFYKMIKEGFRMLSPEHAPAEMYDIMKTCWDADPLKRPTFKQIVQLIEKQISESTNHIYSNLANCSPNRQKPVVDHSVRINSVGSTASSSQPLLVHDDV
Description: Enzyme, substrate, and cofactors (ATP and Mn^2+) are combined in a well of a microtiter plate and incubated for 3 hours at 25° C. At the end of the incubation, the reaction is quenched by the addition of an EDTA-containing buffer. Substrate and product are separated electrophoretically using the microfluidic-based LabChip 3000 Drug Discovery System from Caliper Life Sciences* and quantitated by fluorescence intensity.
The substrate used in the CSF-1R and PDGFRα assay is FAM-[…]-CONH2 (FAM is carboxyfluorescein). Peptide should be >95% purity. The substrate for the KIT assay is FAM-[…]-NH2.
• 1. To a well of a 384-well plate add 5 μL of 2× enzyme buffer (or control) • 2. Add 100 nL of 100× compound. • 3. Add 5 μL of 2× substrate buffer. • 4. Incubate plate at 25° C. for 3 hours. • 5. Add 10 uL of […]. • 6. Read plate LabChip 3000 Drug Discovery System
• 3 hours at 25° C. where 100% Inhibitor: No enzyme.
• 100 mM HEPES, pH 7.5 0.1% BSA • 0.01% Triton X-100 • 1 mM DTT • 10 mM MnCl2 • 10 μM Sodium Orthovanadate • 10 μM Beta-Glycerophosphate • 400 μM ATP • 1% DMSO (from compound) • 1 μM FAM-[…]-CONH2 5.0 nM wtKIT Enzyme (1888289AM)* • *Specific activity may vary from lot to lot. Enzyme concentration may need to be adjusted to yield 10-20% conversion of substrate to product.

wtKIT [2] = biological target: T1, wtKIT; experiment: HTRF biochemical assay, wtKIT (phosphorylation of a peptide substrate); settings: Table 4
Method in brief: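 HTRF read-out of FAM-peptide (1 µM) phosphorylation after anti-phosphotyrosine antibody addition and EDTA quench. Reaction: 5.0 nM wtKIT, 400 µM ATP, 10 mM Mn2+, HEPES pH 7.5, 1% DMSO, 3 h, 25 °C; optional enzyme-compound preincubation; enzyme level set for 10-20% conversion.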

[3] = biological target: T2, BCRP (BCRP-MDCKII monolayer) (Homo sapiens, UniProt Q9UNQ0); experiment: MDCKII-BCRP bidirectional transport assay; type: in vitro ADME
T2 construct: host or cells: MDCKII (canine kidney) cells
T2 sequence (Q9UNQ0 1-655): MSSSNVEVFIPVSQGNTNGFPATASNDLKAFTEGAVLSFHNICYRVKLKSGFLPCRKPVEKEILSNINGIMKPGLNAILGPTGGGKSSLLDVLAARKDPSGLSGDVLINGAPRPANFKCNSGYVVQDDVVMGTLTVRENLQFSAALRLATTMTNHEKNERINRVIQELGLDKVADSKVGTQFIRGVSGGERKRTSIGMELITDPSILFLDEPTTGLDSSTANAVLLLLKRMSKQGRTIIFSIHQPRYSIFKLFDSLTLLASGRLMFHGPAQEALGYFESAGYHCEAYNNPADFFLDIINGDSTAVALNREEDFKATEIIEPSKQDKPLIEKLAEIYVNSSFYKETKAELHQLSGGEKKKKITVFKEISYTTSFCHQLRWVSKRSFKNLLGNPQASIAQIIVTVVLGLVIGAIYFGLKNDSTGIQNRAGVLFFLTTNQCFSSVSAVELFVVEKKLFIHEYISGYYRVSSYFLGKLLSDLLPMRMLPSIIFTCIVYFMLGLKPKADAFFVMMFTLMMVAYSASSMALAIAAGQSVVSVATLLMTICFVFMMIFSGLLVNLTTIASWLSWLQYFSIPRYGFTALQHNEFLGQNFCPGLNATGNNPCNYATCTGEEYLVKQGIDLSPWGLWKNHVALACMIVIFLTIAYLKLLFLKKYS
Description: Exemplary compounds were tested for cell permeability in Caco-2, MDCKII-MDR1 and MDCKII-BCRP cell lines with efflux transporter engagement inferred from the efflux ratios determined. Procedures and results are described below. […] This feature of certain compounds is in part due to efflux transporter engagement. See, for instance, exemplary such compounds included in data tables below.
The reference compound Teriflunomide and test compounds are tested in the bidirectional assay. Test compound and reference compounds incubations were tested in duplicates.
The transport assay can be performed between days 12 to day 15 using ready to use PreadyPort™ BCRP-MDCKII monolayer in 96 well plate.
The medium was aspirated from the apical and basal compartments and 75 and 235 μL assay buffer was added to each of the 96 wells of apical and basal compartments of the PreadyPort™ plate.
The plates were pre-incubated for 15 min at 37° C. with 5% CO2 in humidified atmosphere. After preincubation the assay buffer was removed from the apical and basal inserts of the plate.
In apical to basolateral (A→B) transport, 75 μL of test or reference compound working solution to apical inserts and 235 μL of blank assay buffer were added to the corresponding basal compartments.
In basolateral to apical transport, 235 μL of test or reference compound working solution to the basal compartments and 75 μL of blank assay buffer solution were added to corresponding apical inserts.
The sandwich plate was incubated for 120 min in incubator at 5% CO2 and 37° C.
After incubation, 60 μL was transferred from receiver and donor compartments to collection plate.
For donor and C0 samples 20-fold dilution was accomplished by mixing 60 μL of collected sample with 1140 μL of transport buffer and from that solution aliquot 60 μL transfer Both receiver and donor samples were processed by adding […] of acetonitrile containing internal standard (60 μL of sample+240 μL of acetonitrile containing glyburide as internal standard, 125 ng/mL) and vortexing the samples. The compound concentration was measured in all samples using respective calibration standards by LC-MS/MS.
Calculate the Papp and recovery using the given formula:
[formula] [formula] • Where: dQ/dt=Permeability rate in μM/see • C0=Initial concentration in μM • A=Membrane surface area (0.33 cm^2) • V=Volume of receiver chamber • Cend, a=concentration in acceptor well at end of incubation • Cend, d=concentration in donor well at end of incubation • CHBSS=loading concentration measured in HBSS

SMILES | Solubility (μM) (Kinetic solubility assay) | other results
Cc1ccc(-c2noc(C3(C)CCCC3(F)F)n2)cc1NC(=O)c1cnc2ccccn12 (racemic) [Compound I-374] | **** (a solubility less than or equal to 2 μM) | IC50 (wtKIT [1]): ≤ 50 nM
Cc1ccc(-c2noc([C@H]3CC(=O)CN3)n2)cc1NC(=O)c1cnc2ccccn12 [Compound I-223] |  | IC50 (wtKIT [1]): ≤ 50 nM; IC50 (wtKIT [2]): 50 to 500 nM
Cc1ccc(-c2noc(C3CC3F)n2)cc1NC(=O)c1cnc2ccc(Nc3ccc(OC(F)F)cc3)cn12 (stereo not shown) [Compound I-284] | *** (a solubility greater than 2 μM and less than or equal to 10 μM) | IC50 (wtKIT [1]): ≤ 50 nM
COc1ccc(Nc2ccn3c(C(=O)Nc4cc(-c5noc([C@H]6C[C@@H]6F)n5)ccc4C)cnc3c2)cc1OC [Compound I-285] | **** (a solubility less than or equal to 2 μM) | IC50 (wtKIT [1]): ≤ 50 nM
Cc1ccc(-c2noc([C@H]3C[C@@H]3F)n2)cc1NC(=O)c1cnc2ccc(Cl)nn12 [Compound I-289] | *** (a solubility greater than 2 μM and less than or equal to 10 μM) | IC50 (wtKIT [1]): 50 to 500 nM
Cc1ccc(-c2noc([C@H]3C[C@@H]3F)n2)cc1NC(=O)c1cnc2ccc(Nc3ccc4c(c3)OCCO4)cn12 [Compound I-290] | *** (a solubility greater than 2 μM and less than or equal to 10 μM) | IC50 (wtKIT [1]): ≤ 50 nM
Cc1cc(C)cc(Nc2ccn3c(C(=O)Nc4cc(-c5noc([C@H]6C[C@@H]6F)n5)ccc4C)cnc3c2)c1 [Compound I-292] | *** (a solubility greater than 2 μM and less than or equal to 10 μM) | IC50 (wtKIT [1]): ≤ 50 nM
Cc1ccc(-c2noc([C@H]3C[C@@H]3F)n2)cc1NC(=O)c1cnc2cc(N3CCC(C)CC3)ccn12 [Compound I-303] | **** (a solubility less than or equal to 2 μM) | IC50 (wtKIT [1]): ≤ 50 nM
Cc1ccc(-c2noc(C3CCC3F)n2)cc1NC(=O)c1cnc2ccccn12 (stereo not shown) [Compound I-400] | **** (a solubility less than or equal to 2 μM) | MDCK-BCRP: Efflux Ratio [3]: 1.44; MDCK-BCRP: Papp A-B ([3]; apical to basolateral): 11.7 10^−6 cm/s
Cc1ccc(-c2noc(C3COC3)n2)cc1NC(=O)c1cnc2cc(CC(F)(F)F)ccn12 [I-36] | **** (a solubility less than or equal to 2 μM) | 
COc1ccn2c(C(=O)Nc3cc(-c4nc(C)no4)ccc3Cl)cnc2c1 [I-37] | **** (a solubility less than or equal to 2 μM) | 
O=C(Nc1cc(-c2noc(C3COC3)n2)ccc1Cl)c1cnc2cc(C(F)F)ccn12 [I-38] | **** (a solubility less than or equal to 2 μM) | 
COc1cc2ncc(C(=O)Nc3cc(-c4noc([C@H]5C[C@@H]5F)n4)ccc3C)n2cc1C(F)(F)F [I-41] | **** (a solubility less than or equal to 2 μM) | 
COc1cc2ncc(C(=O)Nc3cc(-c4noc([C@H]5C[C@@H]5F)n4)ccc3C)n2cc1C [I-42] | **** (a solubility less than or equal to 2 μM) | 
Cc1ccc(-c2noc(C3COC3)n2)cc1NC(=O)c1cnc2cc(C(C)(F)F)ccn12 [I-43] | **** (a solubility less than or equal to 2 μM) | 
Cc1ccc(-c2noc([C@H]3C[C@@H]3F)n2)cc1NC(=O)c1cnc2cc(C(C)(F)F)ccn12 [I-44] | **** (a solubility less than or equal to 2 μM) | 
COc1ccn2c(C(=O)Nc3cc(-c4noc(C5COC5)n4)ccc3Cl)cnc2c1 [I-47] | **** (a solubility less than or equal to 2 μM) | 
Cc1ccc(-c2noc(C3COC3)n2)cc1NC(=O)c1cnc2cc(CF)ccn12 [I-48] | **** (a solubility less than or equal to 2 μM) | 
Cc1ccc(-c2noc([C@H]3C[C@@H]3F)n2)cc1NC(=O)c1cnc2cc(CF)ccn12 [I-49] | **** (a solubility less than or equal to 2 μM) | 
Cc1ccc(-c2noc(C3COC3)n2)cc1NC(=O)c1cnc2cc(COCCO)ccn12 [I-50] | *** (a solubility greater than 2 μM and less than or equal to 10 μM) | 
Cc1ccc(-c2noc(C3COC3)n2)cc1NC(=O)c1cnc2cc(C(F)F)ccn12 [I-52] | **** (a solubility less than or equal to 2 μM) | 
COc1ccn2c(C(=O)Nc3cccc(-c4noc([C@H]5C[C@@H]5F)n4)c3F)cnc2c1 [I-53] | **** (a solubility less than or equal to 2 μM) | 
O=C(Nc1cc(-c2noc(C3CC3F)n2)ccc1Cl)c1cnc2cc(COCCO)ccn12 (stereo not shown) [I-56] | **** (a solubility less than or equal to 2 μM) | 
O=C(Nc1cccc(-c2noc(C3CC3F)n2)c1F)c1cnc2cc(COCCO)ccn12 (stereo not shown) [I-57] | **** (a solubility less than or equal to 2 μM) | 
Cc1ccc(-c2noc(C3CC3(F)F)n2)cc1NC(=O)c1cnc2cc(COCCO)ccn12 (stereo not shown) [I-58] | ** (a solubility greater than 10 μM and less than or equal to 50 μM) | 
Cc1ccc(-c2noc(C3CC3F)n2)cc1NC(=O)c1cnc2cc(COC(C)CO)ccn12 (stereo not shown) [I-59] | * (a solubility greater than 50 μM) | 
Cc1ccc(-c2noc(C3CC3F)n2)cc1NC(=O)c1cnn2cccc(C(F)F)c12 (stereo not shown) [I-60] | **** (a solubility less than or equal to 2 μM) | 
Cc1ccc(-c2noc(C3CC3F)n2)cc1NC(=O)c1cnc2cc(COC(C)(C)CO)ccn12 (stereo not shown) [I-64] | ** (a solubility greater than 10 μM and less than or equal to 50 μM) | 
O=C(Nc1cc(-c2noc(C3CC3(F)F)n2)ccc1Cl)c1cnc2ccccn12 (stereo not shown) [I-74] | **** (a solubility less than or equal to 2 μM) | 
Cc1ccc(-c2noc([C@H]3CC4(CC4)CN3)n2)cc1NC(=O)c1cnc2ccccn12 [I-231] | ** (a solubility greater than 10 μM and less than or equal to 50 μM) | 
